From patent US12060570B2, “Vector-free intracellular delivery by reversible permeabilisation” (Avectas Limited, priority 2016, dated 2024)

Experiments:
Format in all cases: cell-based
A549 cells [1] = assay: Endocytosis inhibitor pretreatment, EGFP mRNA expression; settings: n=3; for Expression of EGFP mRNA delivered by soluporation in the presence of inhibitor: pretreatment: Dynasore 4 mM, chloropromazine 20 μM, Nystatin 20 μg/ml, EIPA 100 μM
Experimental: To test the contribution of alternate uptake mechanisms such as active pathways and internalization in endocytotic vesicles, A549 cells were pretreated with Dynasore (4 mM) or chloropromazine (20 μM) to inhibit clathrin-mediated endocytosis or Nystatin (20 μg/ml) or EIPA (100 μM) to inhibit caveolar-mediated endocytosis and micropinocytosis respectively.

Jurkat cells = assay: Delivery of fluorescently-labelled proteins to Jurkat monolayer on transwell insert, flow cytometry; settings: soluporation
Experimental: In order to form a monolayer of suspension cells that would allow the cells to be presented optimally to the spray, a transwell insert system was used. Cells were seeded at 1×10^6 in 400 μl per insert and the media was removed by placing the transwell insert (Greiner bio-one; CAT #655640; 12 Well ThinCert; PET 0.4 μm) into a device that allowed a vacuum to be applied to the bottom of the insert (between −0.5 bar and −0.65 bar; see FIGS. 14A, B, C). Once the media was removed the remaining cells formed a monolayer to which the spray can be applied. Non-adherent cells such as PBMCs, primary T-cells, or a cell line, e.g., Jurkat T cells, were added to the insert system, the vacuum applied and the insert placed into a 12 well plate and sprayed with delivery solution (10 lid) containing test payload such as either fluorescently-labelled beta-lactoglobulin (BLG), bovine serum albumin (BSA) or ovalburnin (OVA). Stop solution (50 μl) was applied after a 2 minute incubation and 30 s later normal media (100 μl) was applied.

A549 cells [2] = assay: Resealing of plasma membrane after permeabilization, PI uptake by flow cytometry; settings: delivery solution without cargo, PI 100 μg/ml, n=3
Experimental: It was noted that the delivery method was very gentle on cells with little if any cell death or damage evident. […] To examine the rate of recovery of the cell membrane after permeabilization, delivery solution was applied to A549 cells in the absence of cargo. At subsequent time points (0 to 182.5 min), this delivery solution was removed and 50 μl PBS containing propidium iodide (PI) (100 μg/ml) is added. After 2 min incubation, the PI solution was removed and the cells were harvested. PI uptake was analysed by flow cytometry. For basal levels of PI uptake, untreated cells received 50 μl PI in PBS. […] After 6 minutes there is no further uptake. Thus not only do the cells load within 2 minutes of exposure to the delivery solution, but the membrane has effectively recovered its integrity within 6 minutes of beginning the procedure.

Row | Compound | Expression of EGFP mRNA delivered by soluporation in the presence of inhibitor (A549 cells [1]) | further results
1 | CCN(c1nc(N)c(C(=O)NC(=N)N)nc1Cl)C(C)C [EIPA] | remained unchanged | –
2 | C[C@@H]1[C@H](O)[C@@H](C)/C=C/C=C/CC/C=C/C=C/C=C/C=C/C(O[C@H]2O[C@H](C)[C@@H](O)[C@H](N)[C@@H]2O)CC2O[C@](O)(CC(O)C(O)CCC(O)CC(O)CC(O)CC(=O)O[C@H]1C)CC(O)C2C(=O)O (some centres unmarked) [Nystatin] | remained unchanged | –
3 | bovine serum albumin [BSA] | – | Expression levels (fluorescently-labelled protein) (Jurkat cells): 28.5%
4 | O=C(N/N=C/c1ccc(O)c(O)c1)c1cc2ccccc2cc1O [Dynasore] | remained unchanged | GFP expression in lipofected cells (Lipofectamine 2000) (A549 cells [1]; Dynasore treated): significantly reduced
5 | CC[N+](C)(CC)CCC[n+]1c(-c2ccccc2)c2cc(N)ccc2c2ccc(N)cc21.[I-].[I-] [propidium iodide] | – | time post treatment over which cells remain permeable to PI before resealing (A549 cells [2]): ≤ 6 min
6 | CN(C)CCCN1c2ccccc2Sc2ccc(Cl)cc21 [chloropromazine] | remained unchanged | –
7 | ovalbumin | – | Expression levels (fluorescently-labelled protein) (Jurkat cells): 15.3%
